Measurements as given in article PMC7318222, “A Family of Water‐Immiscible, Dipolar Aprotic, Diamide Solvents from Succinic Acid” (Chemsuschem, 2020).

Experiments:
[1] = Octanol/water partition coefficient (Log P(o/w)), shake flask method; type: physicochemical; settings: this work
Excerpt: The succindiamides have large, positive Log P (o/w) values, meaning they favor the organic layer in an octanol/water biphasic system and are therefore more lipophilic.37 In contrast, the traditional dipolar aprotics have large, negative Log P (o/w) values so are more hydrophilic. […] Importantly, none of the succindiamide solvents have a Log P (o/w) above 4, the value that has been set as a threshold for bioaccumulation in the environment. […]
Equation S2. π = ν [DMSO]−ν [cyclohexane] […]
Determination of octanol/water partition coefficient (Log P(o/w))
Determination of the log P(o/w) was done by the shake flask method. 1.5 mL each of octanol and water were mixed in a 4 mL vial. 30 μL of the test solute and 10 μL of an internal standard (diglyme) were added and the mixture was shaken for 30 seconds and allowed to stand overnight. Samples (1 mL) were taken from both the aqueous and organic layers and added to 1.5 mL GC vials for GC analysis.
Log P(o/w) was obtained using Equation S5.

[2] = test system: ESRE; test: ESRE CALUX assay (unfolded protein response); type: cell-based, human; design: key: –: no effect observed up to the highest test concentration; settings: cell signaling pathway assay, 24 h exposure
Excerpt: (§1) Six of the CALUX assays (TCF through p53) detect activation of several cellular signaling pathways, which are indicative of general stress and acute toxicity, but also a range of more specific types of toxicity, including reproductive toxicity. […]
2-methylimidazole 99.0%, zinc(II) nitrate hexahydrate ≥99.0%, para-cymene 99.0%, 1,4-dioxane 99.8% (anhydrous), 4-nitroaniline ≥99.0%, 1-octanol ≥99.0%, diglyme ≥99.0%, DMSO-d6 (99.8% D) and chloroform-d (99.8% D) were purchased from Sigma-Aldrich. Toluene ≥99.0%, hexane ≥99.5%, DCM ≥99.5%, chloroform ≥99.5%, DMSO ≥99.0% were purchased from VWR. N,N-diethyl-4-nitroaniline ≥98.0% was purchased from Alfa Aeser. Cyrene was supplied by Circa group. N-butylpyrrolidinone was supplied by Eastman chemicals. N,N-dimethylformamide 99.9% and N,N-dimethylacetamide 99.9% were purchased from Fischer. The flakes of Ultrason® E3020 P Polyarylethersulfone of 55,000 Da were obtained from INGE.BASF, Germany. The CALUX cell lines have been described previously.[1] They are based on human U2-OS cells (ATCC, HTB-96) stably transfected with an expression construct for the full-length human receptor under investigation, and a reporter construct consisting of multimerized responsive elements for the cognate receptor coupled to a minimal promoter element (TATA) and a luciferase gene. Cells were maintained as described previously,[2] using cell culture media and supplements from Fisher Scientific as described in the experimental procedures section. […]
(§2) In vitro reporter gene assays
(§3) The automated CALUX assays were carried out similarly as described earlier,[12] with some adaptations. In brief, the assay was performed in CO2 independent medium (Fisher Scientific, […]
(§4) supplement (Fisher Scientific, 11574466), 10 U/mL penicillin and 10 µg/mL streptomycin. A cell suspension in assay medium was made of 1 × 10^5cells/mL, and white 384-wells plates were seeded with 30 µl cell suspension/well. After 24 h, exposure medium was prepared. A dilution series in 0.5log unit increments of each test compound (in DMSO) was added to a 96-wells plate containing assay medium (2% v/v). Of this exposure mixture, 30 µl was added to the assay plates containing the CALUX cells, resulting in a final DMSO concentration of 1%. Additionally, DMSO blanks and a full dose response curve of the relevant reference compound were included on each plate. All samples were tested in triplicate. The preparation of the compound dilution series as well as the exposure of the cells were performed on a Hamilton StarLET liquid handling robot coupled to a Cytomat incubator.
(§5) Directly after exposure, plates were sealed with non-breathing plate seals (Plate sealer, easy seal transparent; Greiner-Bio-One, 676001). After 24 h the exposure medium was removed using an EL406 washer-dispenser (BioTek) and 10 µl/well triton lysisbuffer was added by the EL406.
(§6) Subsequently, the luciferase signal was measured in a luminometer (InfinitePro coupled to a Connect Stacker, both TECAN). In order to be able to detect receptor antagonism, several assays were also performed in antagonistic mode. The assay procedure was as described above, with the only exception that the EC50 concentration of the reference agonist was present during the exposure.
The luminometer data was analysed as follows; the average of the triplicate wells was determined, and the average blank (DMSO) value was subtracted. […] For antagonist- and cytotoxicity experiments, PC20 values were determined instead, which was defined […]

[3] = test system: Nrf2; test: Nrf2 CALUX assay (oxidative stress); type: cell-based, human; design: key: –: no effect observed up to the highest test concentration; settings: cell signaling pathway assay, 24 h exposure
Excerpt: as §1
(§7) DCM ≥99.5%, chloroform ≥99.5%, DMSO ≥99.0% were purchased from VWR. […]
(§8) Polyarylethersulfone of 55,000 Da were obtained from INGE.BASF, Germany. The CALUX cell lines have been described previously.[1] They are based on human U2-OS cells (ATCC, HTB-96) stably transfected with an expression construct for the full-length human receptor under investigation, and a reporter construct consisting of multimerized responsive elements for the cognate receptor coupled to a minimal promoter element (TATA) and a luciferase gene. Cells were maintained as described previously,[2] using cell culture media and supplements from Fisher Scientific as described in the experimental procedures section. […]
as §2, §3, §4, §5, §6
(§9) The luminometer data was analysed as follows; the average of the triplicate wells was determined, and the average blank (DMSO) value was subtracted. For receptor-based assays the maximum response elicited by the reference compound was set to 100% (full receptor- or pathway activation), and the other values were scaled accordingly. GraphPad Prism was used to fit a sigmoidal curve through the data (four parameters, variable slope). […] For antagonist- and cytotoxicity experiments, PC20 values were determined instead, which was defined as the concentration where the test compound causes a 20% decrease in the basal signal, which was […]
(§10) curve, the signal induction above background (DMSO) was determined, and the concentration where the compound elicited a 1.5-fold increase above background was used as LEC.

[4] = test system: p53; test: p53 CALUX assay; type: cell-based, human; design: key: –: no effect observed up to the highest test concentration; settings: cell signaling pathway assay, 24 h exposure
Excerpt: as §1, §7, §8, §2, §3, §4, §5, §6, §9, §10

SMILES: CCCCN(CCCC)C(=O)CCC(=O)N(CCCC)CCCC [TBSA, N,N,N′,N′‐tetrabutylsuccindiamide]
- logP [1]: 3.77
- LEC ESRE [2]: –
- LEC Nrf2 [3]: –
- LEC p53 [4]: –

SMILES: CCCCN1CCCC1=O [NBP, N‐Butylpyrrolidinone, reference compound]
- logP [1]: 0.99
- LEC ESRE [2]: –
- LEC Nrf2 [3]: –
- LEC p53 [4]: –

SMILES: CN1CCCC1=O [NMP, N‐methyl‐2‐pyrrolidone, reference compound]
- LEC ESRE [2]: –
- LEC Nrf2 [3]: –
- LEC p53 [4]: –

SMILES: CCCCN(CC)C(=O)CCC(=O)N(CC)CCCC [EBSA, N,N′‐diethyl‐N,N′‐dibutylsuccindiamide]
- logP [1]: 2.72
- LEC ESRE [2]: –
- LEC Nrf2 [3]: –
- LEC p53 [4]: –

SMILES: CCCCN(C)C(=O)CCC(=O)N(C)CCCC [MBSA, N,N′‐dimethyl‐N,N′‐dibutylsuccindiamide]
- logP [1]: 1.65
- LEC ESRE [2]: −2.4 Log M
- LEC Nrf2 [3]: −2.9 Log M
- LEC p53 [4]: –
